Entries after “also recorded” stand apart in the source; their conditions may differ. Read-outs that look alike come from different tables or passages of the source.
Legend:
[1] = test system: bloodstream forms of T. b. brucei Lister 427; assay: Resazurin reduction growth inhibition assay against bloodstream forms of T. b. brucei; assay type: cell-based, Trypanosoma brucei brucei; settings: read-out: IC50 ± SD (µM) T. b. b.
Procedure: Bloodstream forms of T. b. brucei Lister 427, a virulent laboratory strain of Trypanosoma brucei were cultured in HMI-9 medium as previously described. […] The resulting signal measured between 570 nm and 590 nm, is directly proportional to the quantity of viable parasites. […] After incubation, a working solution of resazurin (0.15 mg/mL in DPBS) was added to the plates in a 1:10 (v/v) ratio, followed by incubation for 4 hours at 37 °C with 5% CO2. Fluorescence was measured using an Infinite M200 microplate reader (Tecan) at excitation and emission wavelengths of 530 nm and 590 nm, respectively. Compound achieving ≥ 50% inhibition of trypanosomes were selected for further dose-response studies.
Compounds that adhered to the cutoff criterion (≥ 50% inhibition) were serially diluted and tested for their half-maximal inhibitory concentrations (IC50). […] Dose-response curves were generated using GraphPad Prism software (version 8.0). […]
Data were analysed using Microsoft Excel and GraphPad Prism 8.0. Nonlinear regression with a sigmoidal dose-response fit model was applied to the data to determine IC50 and CC50 values.

[2] = Cytotoxicity, resazurin reduction assay, HepG2; assay type: cell-based, human; settings: human
Procedure: (§1) Vero E6 (African green monkey kidney), Raw264.7 (murine macrophages) and HepG2 (human hepatocyte carcinoma) cell lines, sourced from the American Type Culture Collection, were cultured in DMEM supplemented with 10% (v/v) heat-inactivated fetal bovine serum, 1% (v/v) non-essential amino acids, and 1% (v/v) penicillin-streptomycin. Cells were maintained at 37 °C in a 5% CO2 atmosphere. For cytotoxicity testing, they were seeded (90 µL) in 96-well plates at a density of 1x10^4 cells/well, in duplicate, and allowed to adhere overnight. Serial dilutions (50-0.08 µM) of the compounds were prepared, and 10 µL of each were incubated with the monolayer for 48 hours. Podophyllotoxin was tested as a positive control at 10 μM and 0.5% DMSO (100% cell viability) was used as negative control. Cell viability was then assessed using the resazurin reduction assay, as described above. The 50% cytotoxic concentration (CC50) was calculated using GraphPad Prism software (version 8.0), and selectivity indices (SIs) were determined by dividing the […].
(§2) Data were analysed using Microsoft Excel and GraphPad Prism 8.0. Nonlinear regression with a sigmoidal dose-response fit model was applied to the data to determine IC50 and CC50 values. Results represent the mean ± standard deviation (SD) from two independent experiments performed in duplicate.

[3] = test system: HepG2 (human hepatocyte carcinoma) cells; assay: Cytotoxicity, resazurin reduction assay, HepG2; assay type: cell-based
Procedure: as §1, §2

[4] = Cytotoxicity, resazurin reduction assay, Raw264.7; assay type: cell-based, murine; settings: mouse
Procedure: (§3) For cytotoxicity testing, they were seeded (90 µL) in 96-well plates at a density of 1x10^4 cells/well, in duplicate, and allowed to adhere overnight. […] Cell viability was then assessed using the resazurin reduction assay, as described above. […] Data were analysed using Microsoft Excel and GraphPad Prism 8.0. Nonlinear regression with a sigmoidal dose-response fit model was applied to the data to determine IC50 and CC50 values. Results represent the mean ± standard deviation (SD) from two independent experiments performed in duplicate.

[5] = Cytotoxicity, resazurin reduction assay, Vero; assay type: cell-based; settings: African green monkey
Procedure: as §3

[6] = test system: bloodstream forms of T. b. brucei; assay: Trypanosome killing kinetics (time-kill assay); assay type: cell-based, Trypanosoma brucei brucei; settings: for activity profile in time-kill assay (trypanocidal or cytostatic): 8IC50, 4IC50, IC50, 0.25IC50, over 72 hours
Procedure: (§4) To evaluate the killing kinetics of selected compounds, bloodstream forms of T. b. brucei (2 x 10⁵ cells/mL) were incubated in normal culture conditions in the presence of compounds at 8IC50, 4IC50, IC50, and 0.25IC50 concentrations in 24-well plates. Upon incubation, cultures were centrifuged at 0, 4, 8, 12, 24, 30, 36, 48, 60, and 72 hours’ time intervals at 2,500 rpm followed by motile trypanosomes enumeration using a Lumascope LS520 inverted microscope. To determine the mode of inhibition (parasitostatic or parasiticidal), a rescue experiment was conducted. Trypanosomes were exposed to the test doses (8IC50, 4IC50, IC50, and 0.25IC50) of the compounds for 4 hours. They were then washed three times with phosphate buffer saline (DPBS 1X), centrifuged at 2,500 rpm for 7 minutes, and resuspended in complete drug-free medium. These parasites were cultured under the same conditions, and motile organisms were enumerated with the Neubauer chamber at regular intervals over 72 hours. Data were plotted using GraphPad Prism 8.0 to determine the inhibition kinetics and classify the inhibitors as cidal or static. Pentamidine isethionate served as the reference compound and experiments were performed in duplicate.

[7] = test system: bloodstream forms of T. b. brucei; assay: Rescue experiment (4 h exposure, washout, drug-free medium); assay type: cell-based, Trypanosoma brucei brucei; settings: 72 hours monitoring, 4xIC50 and 8xIC50
Procedure: as §4

[8] = molecular target: human CX3C motif chemokine receptor 1 (CX3CR1); design: method as in printed; settings: known human target; ref not given; cited from earlier work
[9] = molecular target: focal adhesion kinase (FAK); design: method as in ref 31 = [31]; 31 Garcia-Echeverria C , Kanazawa T , Kawahara E , Masuya K , Matsuura N , Miyake T . 2, 4-pyrimidinediamines useful in the treatment of neoplastic diseases, inflammatory and immune system disorders .; settings: cited from earlier work
[10] = molecular target: anaplastic lymphoma kinase (ALK); design: method as in ref 31 = [31]; 31 Garcia-Echeverria C , Kanazawa T , Kawahara E , Masuya K , Matsuura N , Miyake T . 2, 4-pyrimidinediamines useful in the treatment of neoplastic diseases, inflammatory and immune system disorders .; settings: cited from earlier work
[11] = test system: insulin-like growth factor 1 (IGF-1R); design: method as in ref 31 = [31]; 31 Garcia-Echeverria C , Kanazawa T , Kawahara E , Masuya K , Matsuura N , Miyake T . 2, 4-pyrimidinediamines useful in the treatment of neoplastic diseases, inflammatory and immune system disorders .; settings: cited from earlier work
[12] = molecular target: leucine-rich repeat kinase 2 (LRRK2); design: method as in ref 31 = [31]; 31 Garcia-Echeverria C , Kanazawa T , Kawahara E , Masuya K , Matsuura N , Miyake T . 2, 4-pyrimidinediamines useful in the treatment of neoplastic diseases, inflammatory and immune system disorders .; settings: cited from earlier work
[13] = Trypanosoma brucei, 72 h, primary screen, DMSO stock solution, bloodstream form T. b. brucei Lister 427, 72 hours
[14] = primary screen, DMSO stock solution, bloodstream form T. b. brucei Lister 427, 72 hours
[15] = Trypanosoma brucei, 72 h, confirmation screen, powdered form, 72 hours

SMILES	IC50 [1, 13]	CC50 at 48 h [2]	IC50 [1, 14]	CC50 [3]	other results
COc1ccc(OC)c(CCNC(=O)c2cn3cc(-c4cc(OC)ccc4OC)nc3s2)c1 [OGHL00225]	9.86 ± 0.0007 µM	> 50 µM			
COc1cccc(CNc2nnc(-c3c[nH]c4ncccc34)o2)c1 [OGHL00138]			1.55 ± 0.2 µM	23.1 ± 3.57 µM	
CCC(C)[S+]([O-])c1ccc(-c2nc3ccncc3[nH]2)c(OC)c1 (stereo not drawn) [OGHL00019]			2.49 ± 0.1 µM	19.8 ± 2.72 µM	
CN(C)C(=O)/C=C/C(=O)c1ccc(SCc2ccc(Cl)cc2Cl)cc1 [OGHL00006, (E)-4-(4-((2,4-dichlorobenzyl)thio)phenyl)-N,N-dimethyl-4-oxobut-2-enamide]	≤ 1 µM	17.5 ± 0.94 µM	0.56 ± 0.001 µM		IC50 [1, 15]: 0.6 ± 0.1 µM; CC50 at 48 h [4]: 2.2 ± 0.05 µM; CC50 at 48 h [5]: 1.2 ± 0.07 µM; activity profile in time-kill assay (trypanocidal or cytostatic) [6]: strong trypanocidal activity; effect after short exposure and washout (reversible or irreversible) [7]: irreversible trypanocidal activity; also recorded: irreversible trypanocidal effects; IC50 [8]: 0.526 µM
CCN=C(c1ccc(OC)c(OC)c1)N1CCCc2cc(C3=NNC(=O)SC3C)ccc21 (stereo not drawn) [OGHL00032]		48.43 ± 0.25 µM			IC50 ([1]; Trypanosoma brucei, 72 h): 5.04 ± 0.16 µM
COc1ccc(C(=O)N2CCC(C)(C)c3cc(C4=NNC(=O)SC4C)ccc32)cc1OC (stereo not drawn) [OGHL00025]	9.22 ± 0.0007 µM	33.3 ± 2.83 µM			
CNC(=O)c1cc(Oc2ccc(NC(=O)Nc3cc(C(F)(F)F)ccc3-n3ccnc3)cc2)ccn1 [OGHL00130]	3 µM	12.9 ± 0.5 µM	3.05 ± 0.14 µM		
COc1cc(OC)c(CCNC(=O)c2cn3cc(-c4cc(OCC#N)ccc4OC)nc3s2)c(OC)c1 [OGHL00238]	2.67 ± 0.7 µM	2.01 ± 0.46 µM			
CN(CCCCc1ccc(F)cc1)CCC(=O)c1ccc2[nH]c(=O)oc2c1 [OGHL00087]			8.62 ± 0.093 µM	27.3 ± 4.5 µM	
COc1cc(OC)c(CCNC(=O)c2ccc3nc(-c4cc(OC)ccc4OC)cn3c2)c(OC)c1 [OGHL00231]	9 µM	> 50 µM	9.06 ± 0.13 µM		
N=C(N)c1ccc(OCCCCCOc2ccc(C(=N)N)cc2)cc1 [Pentamidine isethionate, reference compound]					activity profile in time-kill assay (trypanocidal or cytostatic) [6]: complete and sustained parasite clearance across all tested concentrations; time of exposure to parasite killing / growth arrest ([6]; time-kill assay): ≤ 24 h
COc1cc(OC)c(CCNC(=O)c2cn3cc(-c4cc(OC)ccc4OC)nc3s2)c(OC)c1 [OGHL00227]	2.8 ± 0.08 µM	> 50 µM			fold increase in selectivity ([3]; relative to the analogue of the same series named in the sentence): 3.5 fold
COc1nc(/C=C/c2nc3n(n2)CCCC3c2ccccc2C(F)(F)F)ccc1-n1cnc(C)c1 (stereo not drawn) [OGHL00208]	7.53 ± 1.27 µM	2.36 ± 0.52 µM			
COc1nc(/C=C/c2nc3n(n2)CCC[C@@H]3c2ccccc2C(F)(F)F)ccc1-n1cnc(C)c1 [OGHL00211]	2.37 ± 0.22 µM	5.94 ± 2.55 µM			
CCCc1nn(C)c2c(=O)[nH]c(-c3cc(C(=O)N=C(N)N)ccc3OCC)nc12 [OGHL00103]			7.8 ± 0.07 µM	41.5 ± 3.4 µM	
Cc1ccccc1-c1ccc(-c2nc(-c3ccc(CN(C)CCC(=O)O)c(F)c3)no2)cc1OCC1CC1 [OGHL00165]			8.83 ± 0.09 µM	> 50 µM	
COc1ccc(OCCCO)cc1-c1cn2cc(-c3nnc(NCCCCc4ccccc4)o3)ccc2n1 [OGHL00236]			6.19 ± 0.4 µM	9.07 ± 0.94 µM	
CNS(=O)(=O)c1ccccc1Nc1nc(Nc2cc(OC)c(OC)cc2C)ncc1Br [OGHL00133, 2-((5-bromo-2-((4,5-dimethoxy-2-methylphenyl)amino)pyrimidin-4-yl)amino)-N-methylbenzenesulfonamide]		> 50 µM			IC50 [1, 15]: 0.007 ± 0.00073 µM; CC50 at 48 h [4]: 4.5 ± 0.1 µM; CC50 at 48 h [5]: 1.01 ± 0.09 µM; activity profile in time-kill assay (trypanocidal or cytostatic) [6]: cytostatic activity; effect after short exposure and washout (reversible or irreversible) [7]: reversible inhibitory effect; IC50 [9]: 0.0028 µM; IC50 [10]: 0.03 µM; IC50 [11]: < 0.08 µM; IC50 [12]: 0.00013 µM
COc1cc([C@@H]2c3cc4c(cc3[C@H](O)[C@H]3COC(=O)[C@H]23)OCO4)cc(OC)c1OC [Podophyllotoxin, reference compound]					CC50 at 48 h ([2]; primary screen, DMSO stock solution, 48 hours, read-out: CC50 ± SD (µM) HepG2): 0.031 ± 0.009 µM; CC50 at 48 h ([4]; confirmation screen, powdered form, 48 hours, read-out: CC50 ± SD (µM) Raw): 0.016 ± 0.002 µM; CC50 at 48 h ([5]; confirmation screen, powdered form, 48 hours, read-out: CC50 ± SD (µM) Vero): 0.08 ± 0.005 µM
Oc1ccc2[nH]cc(CCCCN3CC=C(c4ccccc4)CC3)c2c1 [OGHL00007]			5.3 ± 0.7 µM	> 50 µM	
CCOc1cc(CCNC(=O)C[C@H]2S[C@@H](c3ccc(C#Cc4ccccc4)cc3)N(c3cccc(C(N)=O)c3)C2=O)ccc1OC [OGHL00152]	8.87 ± 0.7 µM				
COc1ccc(OCC(N)=O)cc1-c1cn2cc(C(=O)NCCc3c(OC)cccc3OC)sc2n1 [OGHL00241]	2.28 ± 0.04 µM	9.259 ± 0.019 µM			
CCOc1cc(CCNC(=O)C[C@H]2S[C@@H](c3ccc(C#Cc4ccccc4)cc3)N(c3cccc(C(N)=O)c3)C2=O)ccc1O [OGHL00183]	9.64 ± 0.05 µM	50 µM			
COc1cc(C(=O)N(C)C)ccc1-c1cc2nccc(-c3ccc4ccncc4c3)c2o1 [OGHL00250]			2.15 ± 0.2 µM	> 50 µM	
CNS(=O)(=O)c1ccccc1Nc1nc(Nc2ccc(N3CCOCC3)cc2OC)ncc1Br [OGHL00134]	1.3 µM	22.1 ± 5.06 µM	1.31 ± 0.22 µM		
